Here are results for 2 molecules from patent publication CN113143900A, “Ml365在制备预防和/或治疗nlrp3炎症小体相关疾病的药物中的应用” (Southern Medical University, priority 2021, dated 2021).

“Also recorded” adds a separate entry of the source.

The target in experiment [1] is T1, human TWIK2 channel, functional mutant muTWIK2 Y308A/I289A/L290A [人源TWIK2-Y308A/I289A/L290A, muTWIK2] (Homo sapiens, UniProt Q9Y257, I289A/L290A/Y308A).
T1 construct: GFP (green fluorescent protein label of the plasmid); expressed in transfected cells; host or cells: COS-7
T1 sequence (Q9Y257 1-313 I289A/L290A/Y308A): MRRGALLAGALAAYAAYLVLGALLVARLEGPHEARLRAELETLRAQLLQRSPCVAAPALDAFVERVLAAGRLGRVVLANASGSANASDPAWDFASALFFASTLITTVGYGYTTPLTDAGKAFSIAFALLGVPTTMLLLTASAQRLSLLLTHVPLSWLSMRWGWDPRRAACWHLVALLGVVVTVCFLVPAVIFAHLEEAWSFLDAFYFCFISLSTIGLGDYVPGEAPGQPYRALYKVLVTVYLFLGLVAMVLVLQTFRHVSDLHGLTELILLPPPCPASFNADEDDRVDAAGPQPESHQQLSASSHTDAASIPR
Put plainly: Whole-cell patch clamp of transfected COS-7 cells, TWIK2 (muTWIK2) current. The experiment is classed as cell-based. Background: In patch-clamp work, channel activity is measured electrically.

For experiment [2], the system named is AIM2 inflammasome [AIM2炎症小体]. The experiment can be described thus: AIM2 inflammasome activation (LPS + poly(dA:dT)), IL-1β ELISA. It counts as cell-based, mouse. As to conditions: ML365 5 μM (Fig. 9). For orientation: In an ELISA, binding on a coated surface is turned into a signal by an enzyme label.
Experiment [3] concerns the target T2, human THIK1 channel [人源THIK1, THIK1通道] (Homo sapiens, UniProt Q9HB14).
T2 construct: GFP (green fluorescent protein label of the plasmid); expressed in transfected cells; host or cells: COS-7
T2 sequence (Q9HB14 1-408): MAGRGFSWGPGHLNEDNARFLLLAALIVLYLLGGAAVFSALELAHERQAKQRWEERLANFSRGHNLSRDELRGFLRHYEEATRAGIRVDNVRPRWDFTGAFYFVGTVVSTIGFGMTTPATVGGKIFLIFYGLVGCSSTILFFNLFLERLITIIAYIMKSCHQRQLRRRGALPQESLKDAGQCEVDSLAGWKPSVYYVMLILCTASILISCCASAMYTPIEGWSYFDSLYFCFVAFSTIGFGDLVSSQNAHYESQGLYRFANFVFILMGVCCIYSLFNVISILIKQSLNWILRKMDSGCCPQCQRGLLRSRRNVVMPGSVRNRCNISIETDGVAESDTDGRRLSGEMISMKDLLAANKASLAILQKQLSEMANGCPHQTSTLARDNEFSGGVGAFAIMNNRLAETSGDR
The experiment can be described thus: Whole-cell patch clamp of transfected COS-7 cells, THIK1 current. It counts as cell-based.

Experiment [4] concerns non-canonical inflammasome [非经典炎症小体]. The experiment can be described thus: Non-canonical inflammasome activation (Pam3CSK4 + transfected LPS), IL-1β ELISA. The experiment is classed as cell-based, mouse. To be noted: ML365 5 μM (Fig. 9).
The subject of experiment [5] is NLRC4 inflammasome [NLRC4炎症小体]. Put plainly: NLRC4 inflammasome activation (Pam3CSK4 + Flagellin), IL-1β ELISA. It counts as cell-based, mouse. To be noted: ML365 5 μM (Fig. 9).
The subject of experiment [6] is NLRP3 inflammasome [NLRP3炎症小体]. Put plainly: Nigericin-induced NLRP3 inflammasome activation in LPS-primed BMDM (WB, ELISA). The experiment is classed as cell-based, mouse.
Experiment [7] concerns NLRP3 inflammasome [NLRP3炎症小体]. The experiment can be described thus: ATP-induced IL-1β release from LPS-primed BMDM, ELISA. The experiment is classed as cell-based, mouse.
Experiment [8] relates to NLRP3 inflammasome [NLRP3炎症小体]. Put plainly: ATP-induced NLRP3 inflammasome activation in LPS-primed BMDM, Western blot (WB). The experiment is classed as cell-based, mouse.
Experiment [9] has as its system NLRP3 inflammasome [NLRP3炎症小体]. Put plainly: ATP- or Nigericin-induced NLRP3 inflammasome activation in human THP-1 macrophages. The experiment is classed as cell-based.
For experiment [10], the target named is T3, human TWIK1 channel, functional mutant muTWIK1 I293/294A/K274E [人源TWIK1-I293/294A/K274E, muTWIK1] (Homo sapiens, UniProt O00180, I293A/I294A/K274E).
T3 construct: GFP (green fluorescent protein label of the plasmid); expressed in transfected cells; host or cells: COS-7
T3 sequence (O00180 1-336 K274E/I293A/I294A): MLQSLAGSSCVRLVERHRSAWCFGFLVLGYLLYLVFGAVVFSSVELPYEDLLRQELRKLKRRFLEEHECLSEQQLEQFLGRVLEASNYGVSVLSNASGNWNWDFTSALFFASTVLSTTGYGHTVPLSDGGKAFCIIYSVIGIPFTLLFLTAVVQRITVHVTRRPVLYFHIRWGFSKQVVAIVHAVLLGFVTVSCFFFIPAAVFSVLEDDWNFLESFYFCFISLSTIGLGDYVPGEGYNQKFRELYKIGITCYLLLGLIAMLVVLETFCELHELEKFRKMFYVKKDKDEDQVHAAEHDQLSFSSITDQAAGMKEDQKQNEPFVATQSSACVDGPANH
The experiment can be described thus: Whole-cell patch clamp of transfected COS-7 cells, TWIK1 (muTWIK1) current. It counts as cell-based.

The test system of experiment [11] is NLRP3 inflammasome [NLRP3炎症小体]. The experiment can be described thus: ATP-induced NLRP3 inflammasome activation in BMDM after siRNA knockdown of TWIK2 (WB, ELISA). It counts as cell-based, mouse. To be noted: ML365 5 μM (Fig. 11), TWIK2 siRNA 50 nM 48 h, LPS + ATP.
Experiment [12] concerns TNF-α. The experiment can be described thus: TNF-α in supernatants of LPS + ATP treated BMDM, ELISA. It counts as cell-based, mouse. To be noted: same supernatants.
The subject of experiment [13] is NLRP3 inflammasome [NLRP3炎症小体]. To be noted: mouse BMDM; pharmacological inhibition (or knockout) of TWIK2; Di et al. 2018; cited from earlier work.

`COc1ccccc1C(=O)Nc1cccc(NC(=O)c2cccc(C)c2)c1` [ML365, 2-甲氧基-N-[3-[(3-甲基苯甲酰基)氨基]苯基]苯甲酰胺]: in experiment [1] (10 μM in Fig. 3, muTWIK2 in COS-7 cells), the “inhibition of TWIK2 channel (in words)” value is on record as “特异性强效抑制剂; also recorded: 强效抑制剂; also recorded: 较强的抑制作用”. The “I/I0 (inhibition of TWIK2 channel)” value in experiment [1] (ML365 10 μM, muTWIK2 in COS-7 cells) is 0.35±0.02. Moreover, the activity at 10 µM in experiment [1] (ML365 10 μM, muTWIK2 in COS-7 cells, read-out: I/I0 (inhibition of TWIK2 channel)) amounted to 35 ± 2%. Further, the “selectivity for TWIK2 channel (in words)” value in experiment [1] (compared with TWIK1 and THIK1) is on record as “特异性选择抑制剂; also recorded: 强效选择性抑制剂; also recorded: 选择性抑制剂”. Also, in [1] (inhibition of TWIK2 channel, dose-response curve on muTWIK2, COS-7 cells), the half-inhibitory concentration (IC50) was 4.07 µM. Also, the “effect on AIM2 inflammasome activation / induced IL-1β production (in words)” value in experiment [2] is “不抑制 and 无影响”. The “inhibition of THIK1 channel (in words)” value in experiment [3] (10 μM) is reported as “几乎无抑制作用”; in experiment [3] (20 μM), “也无抑制作用”. For the same molecule, the “effect on THIK1 channel function (in words)” value in [3] (concentration not stated) is “不影响”. Moreover, in [4], the “effect on non-canonical inflammasome activation (in words)” value is “不抑制 and 无影响”. Besides, the “effect on NLRC4 inflammasome activation / induced IL-1β production (in words)” value in experiment [5] was “不抑制 and 无影响”. For the same molecule, the “effect on Nigericin-induced NLRP3 inflammasome activation (in words)” value in [6] (BMDM, even at 10 and 20 μM, Nigericin 10 μM 30 min) is “没有影响”; in experiment [6] (concentration not stated), “无影响”; in experiment [9] (Nigericin), “也在人THP-1巨噬细胞中得到证实 and 无影响”. Further, the “IL-1β release (in words)” value in [7] is listed as “显著降低”. The “effect on ATP-induced NLRP3 inflammasome activation (in words)” value in experiment [8] (LPS 5 μg/mL overnight, compound 2 h, ATP 5 mM 1 h) was “阻断 and 剂量依赖性地抑制 and 可以特异性抑制 and 可特异性地抑制 and 可特异性抑制”; in experiment [9] (ATP) it was “也在人THP-1巨噬细胞中得到证实 and 抑制”. For the same molecule, in experiment [8] (WB, LPS + ATP), the “expression level of caspase-1 in cell supernatant (in words)” value is on record as “有所降低”. Further, the “expression level of mature IL-1β in cell supernatant (in words)” value in experiment [8] (WB, LPS + ATP) is “有所降低”. The “inhibition of muTWIK1 channel (in words)” value in experiment [10] (10 μM) is given as “没有抑制作用”; in [10] (20 μM), “也无抑制作用”. Besides, the “effect on TWIK1 channel function (in words)” value in experiment [10] (concentration not stated) is “不影响”. Besides, in experiment [11], the “inhibition of ATP-induced NLRP3 inflammasome activation by ML365 after TWIK2 knockdown (in words)” value is “可阻断 and 极大减弱 and 显著下降 and 可消除”. Further, the “TNF-α expression (in words)” value in experiment [12] is “几乎无影响”.
For the molecule `C=C[C@H]1CN2CC[C@H]1C[C@H]2[C@H](O)c1ccnc2ccc(OC)cc12` [奎宁], in experiment [13], the “ASC oligomerisation (in words)” value is listed as “抑制caspase-1的激活、ATP诱发的IL-1β的释放以及凋亡相关斑点形成蛋白ASC的寡聚化”, the “ATP-evoked IL-1β release (in words)” value was “抑制caspase-1的激活、ATP诱发的IL-1β的释放”, the “caspase-1 activation (in words)” value is “抑制caspase-1的激活” and the “effect on NLRP3 inflammasome activation (in words)” value is “可以抑制BMDM细胞中NLRP3炎症小体的激活”.

In general, IC50 refers to the concentration needed to halve the response being measured. Read a low IC50 as greater potency.
